Experimental data from patent US4432906A, “Inhibitors of SRS-synthesis” (Hoffmann-La Roche Inc., priority 1981, dated 1984).

Tested on: SRS-A synthesis in rat peritoneal cells
Experiment: Inhibition of the in vitro synthesis of SRS-A in rat peritoneal cells (ionophore A23187 challenge; SRS-A quantitated by guinea pig ileum bioassay)
Type: cell-based, rat (male Sprague-Dawley)
Details: for IC50: concentration of test drug which inhibits the synthesis of SRS-A by 50%, from plot of mean percent inhibition versus drug concentration; for inhibition at 10 µM: inhibition of SRS-A synthesis, 10 μM test drug, 10 min preincubation at 37° C., challenge with 5×10^-7 M ionophore A23187, mean percent inhibition
Text: Inhibition of the In Vitro Synthesis of SRS-A in Rat Peritoneal Cells
To study the effect of drugs on SRS-A synthesis in rat peritoneal cells, these cells (including mast cells, monocytes, eosinophils and neutrophils)were isolated from male Sprague-Dawley rats (Charles River Laboratories) weighing 180-220 g by the lavage procedure described by Herzig, D. G. and Dusner, E. J. Journal of Pharmacology and Experimental Therapeutics, 194, 457-460 (1975) with the exception that Hanks balanced salt solution used in these experiments was adjusted to pH 6.9 with 5% (V/V) of 0.1 M aqueous phosphate buffer and contained 50 mg/ml sodium heparin. After removal from the peritoneal cavity of rats, the cells were subsequently isolated by centrifugation at 400×gravity for 10 minutes at 4° C. and resuspended to a concentration of about 2,000,000 cells per ml in Hanks buffer.
Samples for evaluation were prepared by adding various concentrations of test drugs to 2 ml aliquots of resuspended cells in Hanks buffer. The 2 ml samples used for control contained 2 ml aliquots of resuspended cells in Hanks buffer without drugs. All of the above samples (2 ml final volume) were preincubated at 37° C. for 10 minutes in the presence of varying concentrations of test drug prior to challenge with 5×10^-7 M ionophore A23187. This ionophore is disclosed in Burka and Flower, Br. J. Pharmacology 65: 35-41 (1979). Antibiotic A 23187 was used as a probe for the study of calcium and function in biological systems. After ionophore challenge, SRS-A was synthesized in the samples by the cells for 10 minutes (at 37° C.) after which this synthesis was terminated by placing the samples in a boiling water bath for 10 minutes followed by centrifugation at 2,000×g (10 minutes) at 4° C. to remove coagulated protein and cellular debris. The SRS-A present in the resulting supernatants was quantitated by a bioassay using a guinea pig ileum as described in Orange, and Austen, Adv. Immunol, 10:105-144 (1969). For this bioassay, a 1.5 cm segment of ileum was removed from animals weighing 300 to 400 g and resuspended in an organ bath containing 10 ml of Tyrodes solution with 10^-6 M atropine sulfate and 10^-6 M pyrilamine maleate. The bath was maintained at 37° C. and aerated with a mixture of 95% O2 and 5% CO2. The concentration of SRS-A in the experimental samples was determined by a comparison of isotonic contraction responses elicited by the samples with those obtained with varying amounts of an SRS-A standard procedures of Orange, R. R. and Austen, K. F. Adv. Immunol. 10:105-144 (1969) against histamine (1 unit of SRS-A being that amount which gives a contractile response similar to that of […]). […]
The mean percent inhibition [formula] at each concentration of the various test drugs was calculated. […]

SMILES	IC50 [nM]	inhibition at 10 µM [%]
CCCCCCCC/C=C\C(C)(C)/C=C\C/C=C\CCCC(=O)O [(all Z)-10,10-dimethyl-5,8,11-eicosatrienoic acid]	< 10000	100
CCCCC/C=C\C/C=C\C(C)(C)/C=C\C/C=C\CCCC(=O)O [(all Z)-10,10-dimethyleicosa-5,8,11,14-tetraenoic acid]	1000 to 3000	99 ± 1
